Species on record: Rattus norvegicus
Assay: DrugMatrix - Regimen: Daily Repeat
Format: toxicity, organism-based, Sprague-Dawley
Design: regimen Daily Repeat, gender Male, age 6-8 weeks
Details: in vivo, po, route oral GAVAGE, […]
[1] = 0 mg/kg, 72 h, tissue Blood, dose level Control, time 3 day
[2] = 0 mg/kg, 72 h, tissue Plasma, dose level Control, time 3 day
[3] = 0 mg/kg, 120 h, tissue Blood, dose level Control, time 5 day
[4] = 0 mg/kg, 120 h, tissue Plasma, dose level Control, time 5 day
[5] = 72 h, tissue Blood, dose 6.3 mg/Kg, dose level Low, time 3 day
[6] = 72 h, tissue Plasma, dose 6.3 mg/Kg, dose level Low, time 3 day
[7] = 120 h, tissue Blood, dose 6.3 mg/Kg, dose level Low, time 5 day
[8] = 120 h, tissue Plasma, dose 6.3 mg/Kg, dose level Low, time 5 day

Substance: ZIRCONIUM(IV) CHLORIDE
- ABSOLUTE BASOPHIL [1]: 0 CELLS/uL
- ABSOLUTE EOSINOPHIL [1]: 13.67 CELLS/uL
- ABSOLUTE LYMPHOCYTE [1]: 10069.5 CELLS/uL
- ABSOLUTE MONOCYTE [1]: 50 CELLS/uL
- ABSOLUTE SEGMENTED NEUTROPHIL [1]: 516.83 CELLS/uL
- BASOPHIL [1]: 0%
- EOSINOPHIL [1]: 0.17%
- ERYTHROCYTE COUNT [1]: 5.44 x10E6/uL
- HEMATOCRIT [1]: 33.88%
- HEMOGLOBIN [1]: 13.23 G/DL
- LEUKOCYTE COUNT [1]: 10.65 x10E3/uL
- LYMPHOCYTE [1]: 94.67%
- MEAN CORPUSCULAR HEMOGLOBIN [1]: 24.37 pg
- MEAN CORPUSCULAR HEMOGLOBIN CONCENTRATION [1]: 39.05 G/DL
- MONOCYTE [1]: 0.67%
- NEUTROPHIL [1]: 4.5%
- NUCLEATED RED BLOOD CELLS [1]: 0.33 /100WBC
- PLATELET COUNT [1]: 414.5 x10E3/uL
- ALANINE AMINOTRANSFERASE [2]: 72 u/L
- ALKALINE PHOSPHATASE [2]: 375 u/L
- ASPARTATE AMINOTRANSFERASE [2]: 87.5 u/L
- BLOOD UREA NITROGEN [2]: 14 mg/dL
- CARBON DIOXIDE [2]: 27.5 mmol/L
- CHLORIDE [2]: 95.83 MEQ/L
- CHOLESTEROL [2]: 68.5 mg/dL
- CREATINE PHOSPHOKINASE [2]: 284.33 u/L
- CREATININE [2]: 0.16 mg/dL
- LACTATE DEHYDROGENASE [2]: 101.83 u/L
- PHOSPHORUS [2]: 10.33 mg/dL
- POTASSIUM [2]: 5.22 MEQ/L
- TOTAL BILIRUBIN [2]: 0.13 mg/dL
- TOTAL PROTEIN [2]: 5.43 G/DL
- URIC ACID [2]: 0.8 mg/dL
- ABSOLUTE BASOPHIL [3]: 0 CELLS/uL
- ABSOLUTE EOSINOPHIL [3]: 20.67 CELLS/uL
- ABSOLUTE LYMPHOCYTE [3]: 11518.33 CELLS/uL
- ABSOLUTE MONOCYTE [3]: 47 CELLS/uL
- ABSOLUTE SEGMENTED NEUTROPHIL [3]: 614 CELLS/uL
- BASOPHIL [3]: 0%
- EOSINOPHIL [3]: 0.17%
- ERYTHROCYTE COUNT [3]: 5.61 x10E6/uL
- HEMATOCRIT [3]: 34.25%
- LEUKOCYTE COUNT [3]: 12.2 x10E3/uL
- LYMPHOCYTE [3]: 94.33%
- MEAN CORPUSCULAR HEMOGLOBIN [3]: 23.83 pg
- MEAN CORPUSCULAR HEMOGLOBIN CONCENTRATION [3]: 39.08 G/DL
- MEAN CORPUSCULAR VOLUME [3]: 61.03 fL
- MONOCYTE [3]: 0.33%
- NEUTROPHIL [3]: 5.17%
- NUCLEATED RED BLOOD CELLS [3]: 0 /100WBC
- PLATELET COUNT [3]: 941.83 x10E3/uL
- ALANINE AMINOTRANSFERASE [4]: 68.83 u/L
- ALKALINE PHOSPHATASE [4]: 492.67 u/L
- ASPARTATE AMINOTRANSFERASE [4]: 83.33 u/L
- BLOOD UREA NITROGEN [4]: 14 mg/dL
- CARBON DIOXIDE [4]: 37 mmol/L
- CHLORIDE [4]: 98.67 MEQ/L
- CHOLESTEROL [4]: 56.5 mg/dL
- CREATINE PHOSPHOKINASE [4]: 167.33 u/L
- CREATININE [4]: 0.17 mg/dL
- GLUCOSE [4]: 157.5 mg/dL
- LACTATE DEHYDROGENASE [4]: 104.83 u/L
- LIPASE [4]: 10 u/L
- PHOSPHORUS [4]: 10.43 mg/dL
- POTASSIUM [4]: 5.46 MEQ/L
- TOTAL BILIRUBIN [4]: 0.17 mg/dL
- TOTAL PROTEIN [4]: 5.72 G/DL
- URIC ACID [4]: 0.85 mg/dL
- ABSOLUTE BASOPHIL [5]: 0 CELLS/uL
- ABSOLUTE EOSINOPHIL [5]: 0 CELLS/uL
- ABSOLUTE LYMPHOCYTE [5]: 15285.67 CELLS/uL
- ABSOLUTE MONOCYTE [5]: 331 CELLS/uL
- ABSOLUTE SEGMENTED NEUTROPHIL [5]: 1716.67 CELLS/uL
- BASOPHIL [5]: 0%
- EOSINOPHIL [5]: 0%
- ERYTHROCYTE COUNT [5]: 5.71 x10E6/uL
- HEMOGLOBIN [5]: 13.97 G/DL
- LEUKOCYTE COUNT [5]: 17.33 x10E3/uL
- LYMPHOCYTE [5]: 88%
- MEAN CORPUSCULAR HEMOGLOBIN CONCENTRATION [5]: 38.27 G/DL
- MONOCYTE [5]: 2%
- NEUTROPHIL [5]: 10%
- NUCLEATED RED BLOOD CELLS [5]: 0 /100WBC
- PLATELET COUNT [5]: 1101 x10E3/uL
- ALANINE AMINOTRANSFERASE [6]: 74.67 u/L
- ALKALINE PHOSPHATASE [6]: 510.33 u/L
- ASPARTATE AMINOTRANSFERASE [6]: 87.33 u/L
- BLOOD UREA NITROGEN [6]: 14.33 mg/dL
- CARBON DIOXIDE [6]: 27 mmol/L
- CHOLESTEROL [6]: 56.33 mg/dL
- CREATINE PHOSPHOKINASE [6]: 244 u/L
- CREATININE [6]: 0.15 mg/dL
- GLUCOSE [6]: 186.67 mg/dL
- LACTATE DEHYDROGENASE [6]: 186 u/L
- PHOSPHORUS [6]: 12.53 mg/dL
- POTASSIUM [6]: 5.75 MEQ/L
- TOTAL BILIRUBIN [6]: 0.1 mg/dL
- ABSOLUTE BASOPHIL [7]: 0 CELLS/uL
- ABSOLUTE EOSINOPHIL [7]: 0 CELLS/uL
- ABSOLUTE LYMPHOCYTE [7]: 13034.67 CELLS/uL
- ABSOLUTE MONOCYTE [7]: 344.67 CELLS/uL
- ABSOLUTE SEGMENTED NEUTROPHIL [7]: 1154 CELLS/uL
- BASOPHIL [7]: 0%
- EOSINOPHIL [7]: 0%
- ERYTHROCYTE COUNT [7]: 6.21 x10E6/uL
- HEMATOCRIT [7]: 38.6%
- HEMOGLOBIN [7]: 14.47 G/DL
- LEUKOCYTE COUNT [7]: 14.53 x10E3/uL
- MEAN CORPUSCULAR HEMOGLOBIN [7]: 23.3 pg
- MEAN CORPUSCULAR HEMOGLOBIN CONCENTRATION [7]: 37.47 G/DL
- NEUTROPHIL [7]: 8%
- NUCLEATED RED BLOOD CELLS [7]: 0 /100WBC
- PLATELET COUNT [7]: 1100.67 x10E3/uL
- ALANINE AMINOTRANSFERASE [8]: 68.67 u/L
- ALKALINE PHOSPHATASE [8]: 472.33 u/L
- ASPARTATE AMINOTRANSFERASE [8]: 84.33 u/L
- BLOOD UREA NITROGEN [8]: 13.33 mg/dL
- CARBON DIOXIDE [8]: 31.33 mmol/L
- CHOLESTEROL [8]: 55.33 mg/dL
- CREATINE PHOSPHOKINASE [8]: 232 u/L
- CREATININE [8]: 0.14 mg/dL
- LACTATE DEHYDROGENASE [8]: 112.67 u/L
- PHOSPHORUS [8]: 11.63 mg/dL
- POTASSIUM [8]: 6.33 MEQ/L
- TOTAL BILIRUBIN [8]: 0.2 mg/dL
- TOTAL PROTEIN [8]: 5.5 G/DL
